Data taken from patent US11236102B2, “Oxabicycloheptane prodrugs” (Lixte Biotechnology, Inc., priority 2015, dated 2022).
Entries after “also recorded” stand apart in the source; their conditions may differ.

Legend:
[1] = Liver S9 stability and metabolite formation; assay type: in vitro ADME, rat, dog, monkey and human; conditions: presence and absence of NADPH, cross species
Description: The stability (whole blood, liver S9, SGF, SIF, and PBS buffer) and MDCK-MDR1 monolayer permeability of LB100, LB-100 Carbonate and LB-100 POM were evaluated.
Samples were analyzed by LC-MS/MS using a SCIEX QTrap 5500 mass spectrometer coupled with an Agilent 1290 HPLC Infinity series, a CTC PAL chilled autosampler, all controlled by Analyst software. After separation on a C18 reverse phase HPLC column (Acquity UPLC HSS T3, 1.8, 2.1×50 mm) using an acetonitrile-water gradient system, peaks were analyzed by mass spectrometry (MS) using […] ionization in MRM mode.
Experimental Procedure: Test agent is incubated in duplicate with liver S9 at 37° C. The reaction contains liver S9 protein in 100 mM potassium phosphate, 2 mM NADPH, 3 mM MgCl2, pH 7.4. A control is run for each test agent omitting NADPH to detect NADPH-free degradation. At indicated times, an aliquot is removed from each experimental and control reaction and mixed with an equal volume of ice-cold Stop Solution (methanol, containing internal standard propranolol). Stopped reactions are incubated for 10 minutes at −20° C. Samples are centrifuged to remove precipitated protein, and supernatants are analyzed by LC/MS/MS to quantitate remaining parent and the formation of metabolites. Data are reported as % remaining by dividing by the time zero concentration value.

[2] = Pharmacokinetic study of 157 (iv, po) in SD rats: 157 and endothal in plasma, liver, brain; assay type: in vivo; set-up: Tmax: dose or concentration left out as unconfirmed; conditions: for Endothal plasma concentration: individual rats
Description: The blood, liver and brain tissue samples were collected at predetermined times from rats. […] Compound were diluted shortly before use in 4% sodium bicarbonate for sterile injection (this is the standard pediatric solution of NaHCO3 with a pH of about 8.5).
Compound 153 was freshly prepared by diluting the drugs shortly before use in 4% sodium bicarbonate for sterile injection (this is the standard pediatric solution of NaHCO3 with a pH of about 8.5). The final concentrations of 153 solutions were 0.25 mg/mL. The 153 solutions were administered via iv or po route at dose volume of 5 ml/kg according to the latest body weight. Compound 157 was freshly prepared by diluting the drugs shortly before use in 4% sodium bicarbonate for sterile injection (this is the standard pediatric solution of NaHCO3 with a pH of about 8.5). […] The 157 solutions were administered via iv or po route at dose volume of 5 ml/kg according to the latest body weight.
Twelve (12) female SD rats per group were dosed by iv with 153 or 157. The rats were fasted overnight prior to dosing, with free access to water. Foods were withheld for 2 hours post-dose. Blood, liver and brain tissue samples in two animals each group were collected at each time point, within 10% of the scheduled time for each time point. Two extra animals were used for analytic method development.
Blood (>0.3 mL) were collected via aorta abdominalis in anaesthetic animals into tubes containing heparin at 15 min, 1, 2, 6, 10 and 24 hours after iv administration. Liver and brain tissues were collected immediately after animal death. The liver and brain tissues were excised and rinsed with cold saline to avoid blood residual. Upon collection, each sample was placed on ice and the blood samples were subsequently centrifuged (4° C., 11000 rpm, 5 min) to separate plasma.
The obtained plasma, liver and brain tissue samples were stored at −70° C. until LC-MS/MS analysis.
Two (2) female SD rats per group were dosed by po with 153 or 157. The rats were fasted overnight prior to dosing, with free access to water. Foods were withheld for 2 hours post-dose. Blood samples (>0.3 mL) were collected via aorta abdominalis in anaesthetic animals into tubes containing heparin at 30 min, 1, 2, 6, 10 and 24 hours after po administration.
To each sample, 30 μL IS-D (for blank samples, 20 μL acetonitrile:water (1:1) was added) and 300 ul acetonitrile was added. The sample mixture was vortexed for approximately 3 min. After centrifugation at 10000 rpm for 5 min at 4° C., 100 μL of the upper layer was transferred to a new tube and added 200 μL 0.4% formic acid in water (pH6.0). The mixture was vortexed for approximately 3 min before injected onto the LC/MS/MS system for analysis.
On the day of the assay, the frozen liver and brain samples were thawed unassisted at room temperature. An about 200 mg weighed sample of each thawed tissue was placed into a plastic tube with water (0.6 mL) to facilitate homogenization. Tissue processing was conducted using a homogenizer for approximately 1 min, […] homogenate was transferred into a fresh Eppendorf tube. To each tube, 50 μL IS-D was added and mixed. Then 500 ul acetonitrile was added and the sample mixture was vortexed for approximately 3 min. After centrifugation at 10000 rpm for 5 min at 4° C., 100 μL of the upper layer was transferred to a new tube and evaporate the supernatant to dryness at 35° C. Reconstitute the residue with 200 μL of 0.4% formic acid in water (pH 6.0), and vortex for 3 min, submit for LC-MS/MS analysis.
Frozen unknown plasma samples were completely thawed at room temperature and vortexed thoroughly. With a pipette, 50 μL of plasma was transferred into a 2.0 mL Eppendorf tube. 50 μL of 0.1N HCl and 800 μL ethyl acetate were added into each sample. The sample mixture was vortexed for approximately 3 min.

[3] = female, Sprague-Dawley, rat, in vivo, iv, 1.5 mg/kg

Row | SMILES | metabolites observed in liver S9 stability study [1] | detectability in brain samples ([2]; endothal after single iv 157 at 1.5 mg/kg, 1.5 mg/kg) | Tmax ([2]; female, SD, rat, in vivo, po) | AUC [2, 3] | Cmax [2, 3] | Endothal plasma concentration ([2]; iv administration of 157, 10 hr) | Endothal plasma concentration ([2]; iv administration of 157, 24 hr) | Endothal plasma concentration ([2]; po administration of 157, 10 hr) | AUClast in liver ([2]; rat, in vivo, iv, 1.5 mg/kg)
1 | COC(=O)C1C2CCC(O2)C1C(=O)N1CCN(C)CC1 (stereo not drawn) [Compound 151] | No metabolites were observed |  |  |  |  |  |  |  | 
2 | O=C(O)C1C2CCC(O2)C1C(=O)O (stereo not drawn) [Endothal, 7-oxabicyclo[2.2.1]heptane-2,3-dicarboxylic acid] |  | not detectable; also recorded: undetectable | 2 h | 374 ng·h/mL | 3720 ng/mL | BLQ | BLQ | BLQ | 15025 ng·h/g
